We go through 15 compounds from US6436939B2, “Method for using 2-aryloxyalkylaminobenzoxazoles and 2-aryloxyalkylaminobenzothiazoles as H3 antagonists” (Ortho-McNeil Pharmaceutical, Inc., priority 2000, dated 2002).

What is called melting point is the temperature, or range, at which the solid turns liquid. The Ki is a measure of affinity in units of concentration, obtained from inhibition or displacement. Read a low Ki as tighter binding.

Molecules are shown by their SMILES. Where a name gives a salt, the structure may show the parent alone.

In series [1] the target is T1, human histamine H3 receptor (Homo sapiens, UniProt Q9Y5N1).
T1 construct: expressed in transfected cells; membranes prepared
T1 sequence (Q9Y5N1 whole entry): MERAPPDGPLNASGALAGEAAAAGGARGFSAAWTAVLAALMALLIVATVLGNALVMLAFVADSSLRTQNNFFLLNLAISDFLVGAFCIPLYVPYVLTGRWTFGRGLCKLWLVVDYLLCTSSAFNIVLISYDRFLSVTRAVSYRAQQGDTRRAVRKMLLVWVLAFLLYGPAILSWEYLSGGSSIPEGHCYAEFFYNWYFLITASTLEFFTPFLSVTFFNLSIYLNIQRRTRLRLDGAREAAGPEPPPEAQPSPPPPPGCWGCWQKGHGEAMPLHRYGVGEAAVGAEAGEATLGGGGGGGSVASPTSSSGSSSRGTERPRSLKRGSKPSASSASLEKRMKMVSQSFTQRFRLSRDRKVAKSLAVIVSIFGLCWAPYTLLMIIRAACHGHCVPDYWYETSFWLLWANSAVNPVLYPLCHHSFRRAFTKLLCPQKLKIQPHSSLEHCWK
Nature of the series: [3H]-N-methylhistamine binding to membranes of H3 receptor-expressing SK-N-MC cells. As to conditions: 0.8 nM [3H]-N-methylhistamine, 45 minutes at 25° C., SK-N-MC cell membranes; KI from IC50 with KD 800 pM. As to the method:
In the present invention receptor binding was determined using the human histamine H3 receptor (See Lovenberg et al Mol. Pharmacol. 1999, 1107). Screening using the human receptor is particularly important for the identification of new therapies for the treatment of human disease. Conventional binding assays for example are determined using rat synaptosomes (Garbarg et al J. Pharmacol. Exp. Ther. 1992, 263, 304), rat cortical membranes (West et al Mol. Pharmacol. 1990, 610), and guinea pig brain (Korte et al Biochem. Biophys. Res. Commun. 1990, 978). Only limited studies have been performed previously using human tissue but these allude to significant differences in the pharmacology of rodent and primate receptors (West et al Eur. J. Pharmacol. 1999, 233).
A 10 cm tissue culture dish with a confluent monolayer of SK-N-MC cells was split two days prior to transfection. Using sterile technique the media was removed and the cells were detached from the dish by the addition of trypsin. One fifth of the cells were then placed onto a new 10 cm dish. Cells were grown in a 37° C. incubator with 5% CO2 in Minimal Essential Media Eagle with 10% Fetal Bovine Serum. After two days cells were approximately 80% confluent. These were removed from the dish with trypsin and pelleted in a clinical centrifuge. The pellet was then re-suspended in 400 μL complete media and transferred to an electroporation cuvette with a 0.4 cm gap between the electrodes (Bio-Rad #165-2088). One microgram supercoiled H3 receptor CDNA was added to the cells and mixed. The voltage for the electroporation was set at 0.25 kV, the capacitance is set at 960 μF.
After electroporation the cells were diluted into 10 mL complete media and plated onto four 10 cm dishes. Due to the variability in the efficiency of electroporation, four different concentrations of cells were plated. The ratios used were: 1:20, 1:10, and 1:5, with the remainder of the cells being added to the fourth dish. The cells were allowed to recover for 24 hours before adding the selection media (complete media with 600 μg/ml G418). After 10 days dishes were analyzed for surviving colonies of cells. Dishes with well-isolated colonies were used. Cells from individual colonies were isolated and tested. SK-N-MC cells were used because they give efficient coupling for inhibition of adenylate cyclase. The clones that gave the most robust inhibition of adenylate cyclase in response to histamine were used for further study.
Cell pellets from histamine H3 receptor-expressing SK-N-MC cells were homogenized in 20 mM TrisHCl/0.5 mM EDTA. Supernatants from a 800 g spin were collected, reccentrifuged at 30,000 g for 30 minutes. Pellets were rehomogenized in 50 mM Tris/5 mM EDTA (pH 7.4). Membranes were incubated with 0.8 nM [^3H]-N-methylhistamine plus/minus test compounds for 45 minutes at 25° C. and harvested by rapid filtration over GF/C glass fiber filters (pretreated with 0.3% polyethylenimine) followed by four washes with ice cold buffer. Filters were dried, added to 4 mL scintillation cocktail and then counted on a liquid scintillation counter. Non-specific binding was defined with 10 μM histamine according to Chen and Prusoff, Biochem. Pharmacol. 1973, 22:3099. KI values were calculated based on a KD of 800 pM and a ligand concentration ([L]) of 800 pM according to the formula: […]
KI values are provided in the examples above.

In the case of `C(=C\c1nc2ccccc2s1)/c1ccc(OCCCN2CCCCC2)cc1` (as salt: HCl) [Example 3, (E)-2-[2-(4-Piperidinopropoxyphenyl)ethenyl]benzothiazole], the melting point was 215 to 217 °C. Same read-out and setting: with `C(=C\c1nc2ccccc2o1)/c1ccc(OCCCN2CCCCC2)cc1` (as salt: HCl) [Example 4, (E)-2-[2-[4-(3-Piperidinopropoxy)phenyl]ethenyl]benzoxazole] the figure was 127 to 128 °C; with `C(=C\c1nc2ccccc2o1)/c1ccc(OCCCCN2CCCCC2)cc1` (as salt: HCl) [Example 6, (E)-2-[2-(4-Piperidinobutoxyphenyl)ethenyl]benzoxazole], 230 to 232 °C; with `CCN(CC)CCCCOc1ccc(/C=C/c2nc3ccccc3o2)cc1` (as salt: HCl) [Example 7, (E)-2-[2-(4-Diethylaminobutoxyphenyl)ethenyl]benzoxazole], 219 to 220 °C. On the same count and under the same terms, with `CCN(CC)CCCOc1ccc(/C=C/c2nc3ccccc3o2)cc1` (as salt: HCl) [Example 8, (E)-2-[2-(4-Diethylaminopropoxyphenyl)ethenyl]benzoxazole] the figure was 225 to 226 °C. For the compound `C(=C\c1nc2ccccc2o1)/c1ccc(OCCCCN2CCCC2)cc1` (as salt: HCl) [Example 9, (E)-2-[2-(4-Pyrrolinobutoxyphenyl)ethenyl]benzoxazole], the melting point was in the range of 229 to 232 °C. On the same count and under the same terms, with `CCCN(CCC)CCCOc1ccc(-c2nc3ccccc3s2)cc1` (as salt: HCl) [Example 11, 2-(4-Dipropylaminopropoxyphenyl)benzothiazole] the figure was 142 to 143 °C. In the case of `C(=C\c1nc2ccccc2s1)/c1ccc(OCCCN2CCCCC2)cc1` [Example 3, (E)-2-[2-(4-Piperidinopropoxyphenyl)ethenyl]benzothiazole], the Ki in series [1] was determined as 15 nM. The same measure, in the same setting: with `C(=C\c1nc2ccccc2o1)/c1ccc(OCCCN2CCCCC2)cc1` [Example 4, (E)-2-[2-[4-(3-Piperidinopropoxy)phenyl]ethenyl]benzoxazole] the figure was 13 nM; with `C(=C\c1nc2ccccc2o1)/c1ccc(OCCCCN2CCCCC2)cc1` [Example 6, (E)-2-[2-(4-Piperidinobutoxyphenyl)ethenyl]benzoxazole], 34 nM; with `CCN(CC)CCCCOc1ccc(/C=C/c2nc3ccccc3o2)cc1` [Example 7, (E)-2-[2-(4-Diethylaminobutoxyphenyl)ethenyl]benzoxazole], 48 nM. On the same count and under the same terms, with `CCN(CC)CCCOc1ccc(/C=C/c2nc3ccccc3o2)cc1` [Example 8, (E)-2-[2-(4-Diethylaminopropoxyphenyl)ethenyl]benzoxazole] the figure was 31 nM; with `C(=C\c1nc2ccccc2o1)/c1ccc(OCCCCN2CCCC2)cc1` [Example 9, (E)-2-[2-(4-Pyrrolinobutoxyphenyl)ethenyl]benzoxazole], 17 nM.

Turning to `CCCN(CCC)CCCOc1ccc(-c2nc3ccccc3s2)cc1` [Example 11, 2-(4-Dipropylaminopropoxyphenyl)benzothiazole], affinity in series [1] was put at a Ki of 173 nM.

Turning to `CCCN(CCC)CCCCOc1c(C)cc(/C=C/c2nc3ccccc3s2)cc1C` [Example 12, (E)-2-[2-(3,5-Dimethyl-4-dipropylaminobutoxyphenyl)ethenyl]benzothiazole], in series [1], the Ki was found to be 1000 nM.
